Source: PMC12040169 (PLOS Biology, 2025)

Assay: in vitro
Settings: human, hela cells, % viability

Row | SMILES | viability at 28.5 h, 10 µM | viability at 28.5 h, 10 µM (bulk resorufin, single well)
1 | Cc1c(C(=O)O)sc2ncn(CCOc3ccc(Cl)cc3)c(=O)c12 [CBK286808] | 88.5% | –
2 | O=C(CC(CN1CCN(c2ccccn2)CC1)C(=O)O)NC1CCCCC1 (centres unmarked) [CBK286812] | 87.7% | –
3 | COc1cccc(N2CCN(CC(CC(=O)Nc3ccccc3)C(=O)O)CC2)c1 (centres unmarked) [CBK286813] | 89.8% | –
4 | CC(=O)NC(CSc1cc(C)nc2ccc(F)cc12)C(=O)O (centres unmarked) [CBK286815] | 91.7% | –
5 | CCOc1ccccc1N1CCN(C(C(=O)O)c2c[nH]c3ccc(CO)cc23)CC1 (centres unmarked) [CBK286816] | 90.1% | –
6 | Cc1cc(C(F)(F)F)nn1CCC(=O)Nc1cnn(C)c1C(=O)O [CBK286817] | 98.4% | –
7 | COc1cccc(OCC(=O)Nc2ccccc2C(=O)O)c1 [CBK286819] | 85.9% | –
8 | Cc1noc(C)c1CN1CCN(CC(CC(=O)Nc2ccc(F)cc2)C(=O)O)CC1 (centres unmarked) [CBK286821] | 90.5% | –
9 | C=C(C)CN1CCN(CC(CC(=O)NCc2ccccc2)C(=O)O)CC1 (centres unmarked) [CBK286823] | 98.1% | –
10 | O=C(O)C(c1c[nH]c2cc(F)ccc12)N1CCN(CC(=O)N2CCOCC2)CC1 (centres unmarked) [CBK286825] | 86.5% | –
11 | CC(c1ccccc1)C(CC(=O)O)C(=O)NCc1ccccc1 (centres unmarked) [CBK286830] | 101% | –
12 | COc1ccc(NC(=O)CC(CN2CCN(c3ccc(Cl)cc3)CC2)C(=O)O)cc1 (centres unmarked) [CBK286831] | 101% | –
13 | Cc1n[nH]c2nc(-c3cc(Br)ccc3O)cc(C(=O)O)c12 [CBK286834] | 105% | –
14 | O=C(O)CN1CCN(c2ncnc3sc4c(c23)CCCC4)CC1 [CBK286836] | 99.5% | –
15 | Cc1nn(Cc2c(F)cccc2Cl)c(C)c1NC(=O)CCCC(=O)O [CBK286838] | 108% | –
16 | CC(CC(=O)O)CC(=O)N1CCN(c2ccccn2)CC1 (centres unmarked) [CBK286839] | 107% | –
17 | O=C(O)[C@@H]1CCN(Cc2ccccc2)C[C@H]1c1ccccc1 [CBK286840] | 102% | –
18 | Cc1cc(=O)c(O)c(CN2CCC(C(=O)O)CC2)o1 [CBK286843] | 87.6% | –
19 | O=C(CC(CN1CCN(CC(=O)N2CCCC2)CC1)C(=O)O)Nc1ccccc1 (centres unmarked) [CBK286844] | 87.9% | –
20 | O=C(O)C(c1c[nH]c2cc(CO)ccc12)N1CCCN(c2ccc(C(F)(F)F)cn2)CC1 (centres unmarked) [CBK286845] | 85.3% | –
21 | COc1ccc2[nH]cc(C(C(=O)O)N3CCN(Cc4ccccn4)CC3)c2c1 (centres unmarked) [CBK286846] | 80.5% | –

Row | SMILES | viability at 28.5 h, 10 µM | viability at 28.5 h, 10 µM (bulk resorufin, single well)
22 | COc1ccc(C2C(C(=O)O)c3ccccc3C(=O)N2C)cc1 (centres unmarked) [CBK286847] | 85.8% | –
23 | O=C(O)C1C2CCC(O2)C1C(=O)NC1CCCCC1 (centres unmarked) [CBK286848] | – | 85%
24 | O=C(O)CC1CCN(c2ccc(C(F)(F)F)cn2)CC1 [CBK286850] | 90.4% | –
25 | O=C(O)CCC(=O)N1CCN(Cc2ccc(Cl)cc2)CC1 [CBK286852] | 90% | –
26 | O=C(CC(CN1CCN(Cc2cccnc2)CC1)C(=O)O)Nc1ccc(Cl)cc1 (centres unmarked) [CBK286853] | 91.5% | –
27 | COc1ccc(NC(=O)CC(CN(C)Cc2ccccc2)C(=O)O)cc1 (centres unmarked) [CBK286854] | 93.5% | –
28 | O=C(CC(CN1CCCN(c2ncccn2)CC1)C(=O)O)NCc1ccccc1 (centres unmarked) [CBK286856] | 87.2% | –
29 | COc1cccc2c(C(C(=O)O)N3CCN(c4ccc(C(F)(F)F)cn4)CC3)c[nH]c12 (centres unmarked) [CBK286857] | 89.7% | –
30 | Cc1noc(C)c1CN1CCN(CC(CC(=O)Nc2ccccc2)C(=O)O)CC1 (centres unmarked) [CBK286858] | 83.2% | –
31 | CCn1ncc(Cn2cc(NC(=O)C3CCCCC3C(=O)O)cn2)c1C (centres unmarked) [CBK286859] | 98.9% | –
32 | CC(C)C1C2CCCCC2=NN1C(=O)/C=C/C(=O)O (centres unmarked) [CBK286862] | 93.1% | –
33 | O=C(O)c1cccc(Nc2nc(Nc3ccccc3)nc(N3CCCC3)n2)c1 [CBK286863] | 89.8% | –
34 | CN1CCN(CC(CC(=O)Nc2c(F)cccc2F)C(=O)O)CC1 (centres unmarked) [CBK286867] | 92% | –
35 | C[C@@H]1C[C@H](C)CN(C(C(=O)O)c2c[nH]c3ccccc23)C1 (some centres unmarked) [CBK286868] | 94.3% | –
36 | CC(C)(O)C#Cc1ccc(C(=O)N2CCCC2C(=O)O)s1 (centres unmarked) [CBK286869] | 79.5% | –
37 | O=C(O)C(Cc1c[nH]cn1)N1C(=O)C2CC=C(Cl)CC2C1=O (centres unmarked) [CBK286871] | 92.4% | –
38 | Cc1nn(C)cc1CNC(=O)C1C2CCC(C2)C1C(=O)O (centres unmarked) [CBK286875] | 89.3% | –
39 | O=C(O)C1CC(=O)N(Cc2ccccc2)C1c1ccccc1 (centres unmarked) [CBK286876] | 89.1% | –
40 | Cc1cc(C)cc(/N=C2\NC(=O)C(CC(=O)O)S2)c1 (centres unmarked) [CBK286878] | 91.4% | –
41 | O=C(O)CCc1nc2[nH]c(C(F)F)cc(=O)n2n1 [CBK286880] | 98.6% | –
42 | CC(=O)N(Cc1ccccc1)c1ccc(C(=O)O)cc1 [CBK286882] | 102% | –

Row | SMILES | viability at 28.5 h, 10 µM | viability at 28.5 h, 10 µM (bulk resorufin, single well)
43 | O=C(O)c1cc2c(s1)CN(C1CCCCC1)C2 [CBK286885] | 96.2% | –
44 | O=C(O)CCCOc1nc(C2CC2)cc(C(F)(F)F)n1 [CBK286886] | 92% | –
45 | Cc1c(C(C)NC(=O)C2C3CCC(O3)C2C(=O)O)cnn1C (centres unmarked) [CBK286887] | 91.4% | –
46 | Cc1c(-c2cc(C(F)F)n3nc(CCC(=O)O)nc3n2)cnn1C [CBK286888] | 85.7% | –
47 | Cc1ccccc1N1CCN(Cc2cccc(C(=O)O)c2)CC1 [CBK286890] | 90.8% | –
48 | O=C(O)C1CCN(Cc2ccc(Cl)cc2)CC1 [CBK286895] | 89.3% | –
49 | CC(C)(C)C(Cn1cccn1)NC(=O)CCC(=O)O (centres unmarked) [CBK286897] | 81.3% | –
50 | O=C(O)CCCC(=O)N(c1ccccc1)c1ccccc1 [CBK286901] | 80.2% | –
51 | COc1ccccc1N1CCN(C(=O)CCCC(=O)O)CC1 [CBK286904] | 80.8% | –
52 | O=C(O)CCC(=O)NN1C(=O)c2ccccc2NC1c1ccc(F)cc1 (centres unmarked) [CBK286905] | 84% | –
53 | N#Cc1ccccc1NC(=O)C(CC(=O)O)NCc1ccccc1 (centres unmarked) [CBK286907] | 83.6% | –
54 | COc1cc(C(N)C(=O)O)ccc1OCc1ccccc1 (centres unmarked) [CBK286909] | 82.6% | –
55 | O=C(O)CC(c1ccncc1)c1c[nH]c2ccccc12 (centres unmarked) [CBK286913] | 90.9% | –
56 | O=C(O)CCn1cc(Br)c([N+](=O)[O-])n1 [CBK286916] | 90% | –
57 | O=C(O)C1C2C=CC(O2)C1C(=O)NCC1CCCO1 (centres unmarked) [CBK286917] | 92.7% | –
58 | O=C(O)CCC(=O)N1CCN(C2CCCCC2)CC1 [CBK286918] | 94.1% | –
59 | CC(C)C(NS(=O)(=O)c1ccc2ccccc2c1)C(=O)O (centres unmarked) [CBK286919] | 96.7% | –
60 | Cc1ccc(-c2ccc(CCC(=O)O)n2CC(=O)O)cc1 [CBK286922] | 94.8% | –
61 | CC1=CC(C)C2C(=O)N(c3ccc(C(=O)O)cc3)C(=O)C2C1 (centres unmarked) [CBK286923] | 87% | –
62 | COc1ccc(-c2csc(Nc3cccc(C(=O)O)c3)n2)cc1 [CBK286924] | 86.7% | –
63 | O=C(O)C1CCCN(C(=O)CCc2c[nH]c3ccccc23)C1 (centres unmarked) [CBK286925] | 88.6% | –

Row | SMILES | viability at 28.5 h, 10 µM | viability at 28.5 h, 10 µM (bulk resorufin, single well)
64 | CCCC(C(=O)O)C(C)CC(=O)Nc1ccccc1Cl (centres unmarked) [CBK286927] | 99.1% | –
65 | CCc1c(SCC(=O)O)nc2ccccc2c1C [CBK286928] | 95.8% | –
66 | Cc1ccc(S(=O)(=O)NC2CCC(C(=O)O)CC2)cc1 (centres unmarked) [CBK286929] | 96.4% | –
67 | O=C(O)CCC(=O)NCc1ccc2c(c1)OCO2 [CBK286930] | 91.6% | –
68 | CCOc1ccc(NC(=O)COc2ccccc2/C=C/C(=O)O)cc1 [CBK286935] | 96.6% | –
69 | Cc1ccc(NC(=O)C2CCCCC2C(=O)O)cc1Cl (centres unmarked) [CBK286938] | 99.9% | –
70 | CCCC(=O)Nc1ccc(C(=O)O)cc1NC(=O)CCC [CBK286939] | 92.3% | –
71 | CC(CCc1ccccc1)NC(=O)c1ccccc1C(=O)O (centres unmarked) [CBK286940] | 94.5% | –
72 | NCCCC(C(=O)O)C(=O)c1ccccc1-c1ccccc1 (centres unmarked) [CBK286941] | 99.2% | –
73 | CCN(CC)C(=O)Cc1cc(C(=O)O)c2ccccc2n1 [CBK286942] | 104% | –
74 | O=C(O)C1C2CCC(O2)C1C(=O)N1CCN(Cc2ccc(Cl)cc2)CC1 (centres unmarked) [CBK286943] | 97.5% | –
75 | Cc1ccc(S(=O)(=O)N2CCN(C(=O)C3C4C=CC(C4)C3C(=O)O)CC2)cc1 (centres unmarked) [CBK286944] | 106% | –
76 | O=C(O)CCC1=C2c3ccccc3CCN2C(=O)CC1 [CBK286945] | 108% | –
77 | O=C(O)c1oc2ccccc2c1CN1CCN(c2ccccc2)CC1 [CBK286948] | 115% | –
78 | CC(C)(C)c1ccc(C(=O)N2CCC(C(=O)O)CC2)cc1 [CBK286949] | 108% | –
79 | C/C(=C/C(=O)NCc1ccc(Cl)cc1)C(=O)O [CBK286954] | 105% | –
80 | O=C(O)CCC(=O)N1CCN(S(=O)(=O)c2ccc(F)cc2)CC1 [CBK286956] | 93.2% | –
81 | O=C(O)CCCC(=O)NC12CC3CC(CC(C3)C1)C2 [CBK286958] | 97.4% | –
82 | O=C(O)/C=C/C(=O)NN1C(=O)c2ccccc2C1=O [CBK286962] | 86.9% | –
83 | O=C(O)c1c[nH]nc1-c1cccc(Br)c1 [CBK286963] | 91.1% | –
